Among the data in the Deep4Chem optical property database are emission maximum values, retold here.

The series in a line: solvent given as SMILES.

Where “and” joins values, the source holds several entries; their conditions need not be identical. Identical values can stand only once.

On to `CN(C)c1ccc2nc(-c3ccc(C(=O)O)cc3)sc2c1`, for which the emission maximum by setting is: (in C1CCCCC1) 426 nm; (in CC#N) 558 nm; (in CC(C)O) 493 nm; (in CO) 512 nm; (in CS(C)=O) 568 nm; (in ClC(Cl)Cl) 509 nm. The emission maximum (in c1ccccc1) is 483 nm and 486 nm.
The compound `O=C(O)C1=CC(=C/C=[N+]2/c3cc(O)c(C[C@@H]4O[C@H](CO)[C@@H](O)C(O)[C@H]4O)cc3C[C@H]2C(=O)O)C=C(C(=O)O)N1` (some centres not stated) displayed an emission maximum (in CO) of 588 nm, an emission maximum (in O) of 620 nm, an emission maximum (in OCCO) of 594 nm and an emission maximum (in [2H]O[2H]) of 620 nm.
`N#Cc1nc(N(Cc2ccc(Br)cc2)Cc2ccc(Br)cc2)c(C#N)nc1N(Cc1ccc(Br)cc1)Cc1ccc(Br)cc1` displayed an emission maximum (in ClC(Cl)Cl) of 575 nm.
For the compound `Cc1ccccc1-c1c2ccc(=[N+]3CCCCC3)cc-2oc2cc(N3CCCCC3)ccc12`, the emission maximum by setting is: (in CCO) 584 nm; (in ClCCl) 582 nm.
In turn, `CCCCN1C(=O)c2cc(Oc3ccc(C(C)(C)C)cc3)c3c4c(Oc5ccc(C(C)(C)C)cc5)cc5c(=O)[nH]/c(=C\c6ccccn6)c6cc(Oc7ccc(C(C)(C)C)cc7)c(c7c(Oc8ccc(C(C)(C)C)cc8)cc(c2c37)C1=O)c4c56` showed an emission maximum (in ClCCl) of 652 nm.
The compound `c1cc2c3c(cccc3c1)-c1c-2c2c3ccccc3c3ccc4c5c6c(c7c8ccccc8c8ccc9c%10c%11c(c%12c%13ccccc%13c%13ccc%14c1c1c2c3c4c2c1c1c%14c%13c%12c%10c1c1c9c8c7c5c21)-c1cccc2cccc-%11c12)-c1cccc2cccc-6c12` yielded an emission maximum (in C1CCOC1) of 594 nm.
In the case of `CCC/N=C/c1cc2ccc(N(C)C)cc2cc1OC`, the emission maximum turned out to be 429 nm (in C1CCOC1); 448 nm (in CC#N); 547 nm (in CC(C)O); 441 nm (in CCOC(C)=O); 449 nm (in CN(C)C=O); 456 nm (in CS(C)=O). Also, the emission maximum by setting is: (in Cc1ccccc1) 418 nm; (in ClCCl) 434 nm; (in O) 556 nm.
In turn, `Cc1cc2ccccc2c2[nH]c3ccccc3c12` had an emission maximum (in ClCCl) of 360 nm.
`CCCCCCOc1ccc(N(c2ccc(OCCCCCC)cc2)c2ccc(-c3sc(-c4ccc(N(c5ccc(OCCCCCC)cc5)c5ccc(OCCCCCC)cc5)cc4)c4nc(CC)c(CC)nc34)cc2)cc1` displayed an emission maximum (in ClCCl) of 725 nm.
`CCCCn1c2ccccc2c2ccc3c4cc(-c5cccc(F)c5)ccc4n(CCCC)c3c21`: the emission maximum (in ClC(Cl)Cl) was 398 nm.
For the compound `CC(=O)O[B-]1(OC(C)=O)OC(/C=C/c2cccc3ccccc23)=CC(/C=C/c2cccc3ccccc23)=[O+]1`, the emission maximum runs as follows: (in C1CCOC1) 539 nm; (in CC#N) 569 nm; (in CC(C)=O) 553 nm; (in CS(C)=O) 574 nm; (in Cc1ccccc1) 529 nm; (in ClC(Cl)Cl) 551 nm. Under “in ClCCl”, the emission maximum is 554 nm.
With `C(=C\c1cccnc1)/c1ccc(N(c2ccccc2)c2ccccc2)cc1`, the emission maximum reads like this: (in CC#N) 476 nm; (in CCCCCC) 403 nm.
Compound `COc1ccc(-c2cc3c(o2)=CC2=Cc4cc5oc(-c6ccc(OC)cc6)cc5n4[B-](F)(F)[N+]=32)cc1` had an emission maximum (in ClC(Cl)Cl) of 683 nm.
For the compound `CC1=C(Cc2ccccc2)C(C)=[N+]2C1=C(C)c1c(C)c(-c3csc(N4CCOCC4)n3)c(C)n1[B-]2(F)F`, the emission maximum is, setting by setting: (in C1CCOC1) 620 nm; (in C1COCCO1) 602 nm; (in CC#N) 537 nm; (in CC(C)O) 543 nm; (in CCO) 538 nm; (in CCOC(C)=O) 545 nm. The emission maximum came to 537 nm (in CN(C)C=O); 539 nm (in CO); 548 nm (in CS(C)=O); 603 nm (in Cc1ccccc1); 607 nm (in ClC(Cl)Cl); 535 nm (in ClCCl).
Turning to `Cc1cc2nc3c(=O)[nH]c(=O)n(C)c3nc2cc1C`, the emission maximum (in CC#N) is given as 437 nm.
Regarding `COc1ccccc1-c1cc2c(o1)=CC1=Cc3cc4oc(-c5ccccc5OC)cc4n3[B-](F)(F)[N+]=21`, where the note is “in ClC(Cl)Cl”, the emission maximum was 680 nm.
Regarding `c1ccc2c(c1)c1ccccc1n2-c1ccc2cc(-c3ccc(-c4ccc(-c5cc6ccc(-n7c8ccccc8c8ccccc87)cc6o5)cc4)cc3)oc2c1`, the emission maximum is 419 nm (in Cc1ccccc1) and 441 nm (in c1ccc2c(c1)c1ccccc1n2-c1ccc(-c2ccc(-n3c4ccccc4c4ccccc43)cc2)cc1).
For the compound `COC1=[N+]2C(=C(c3ccccc3)c3ccc(OC)n3[B-]2(F)F)C=C1`, the emission maximum (in CC#N) was 628 nm; the emission maximum (in CCCCCC) came out at 623 nm; the emission maximum (in CCOC(C)=O) stood at 628 nm; the emission maximum (in CO) was determined as 620 nm; the emission maximum (in ClCCl) is 630 nm.
Take `F[B-]1(F)n2c(ccc2-c2ccccc2)C(c2ccc(I)cc2)=C2C=CC(c3ccccc3)=[N+]21`: under “in ClC(Cl)Cl”, the emission maximum was 588 nm.
Compound `O=C1/C(=C\c2ccc(N(c3ccccc3)c3ccccc3)cc2)S(=O)(=O)c2ccccc21` yielded an emission maximum (in C1CCOC1) of 630 nm; an emission maximum (in C1COCCO1) of 600 nm; an emission maximum (in CC#N) of 518 nm; an emission maximum (in CC(C)=O) of 540 nm; an emission maximum (in CCOC(C)=O) of 617 nm; an emission maximum (in CN(C)C=O) of 520 nm. Besides, the emission maximum was determined as 597 nm (in CO); 553 nm (in CS(C)=O); 587 nm (in Cc1ccccc1); 626 nm (in ClC(Cl)Cl); 631 nm (in ClCCl).
`CCCCCCCCn1c2ccccc2c(=O)c2ccccc21` came in with an emission maximum (in CS(C)=O) of 414 nm.
Turning to `Cc1ccc(/C=C/C(F)(F)F)c(N)c1`, where the note is “in C1CCOC1”, the emission maximum was 423 nm.
For the setting “in Cc1ccccc1”, `c1ccc2c(c1)CCc1ccccc1N2c1c2ccccc2cc2ccccc12` had an emission maximum of 507 nm.
For the compound `C(=C\c1cccc2ccccc12)/c1ncc(-c2ccccc2)o1`, the emission maximum (in ClCCl) was determined as 440 nm.
Regarding `C1=C(c2ccccc2)C2=Nc3c(-c4ccccc4)cc4n3[B-]3(Oc5ccccc5C1=[N+]23)Oc1ccccc1-4` (configuration not stated), where the note is “in Cc1ccccc1”, the emission maximum is given as 746 nm.
Under “in C1CCCCC1”, `CCCC1(CCC)c2cc(-c3cccc(C)c3)ccc2-c2ccc(-c3cccc(C)c3)cc21` showed an emission maximum of 363 nm.
Take `c1ccc(-c2nc(-c3ccccc3)nc(-c3ccc(-n4c5ccccc5c5cc6c(cc54)c4ccccc4n6-c4ccccc4)cc3)n2)cc1`: the emission maximum by setting is: (in Cc1ccccc1) 478 nm; (in O=P(c1ccccc1)(c1ccccc1)c1ccc2oc3ccc(P(=O)(c4ccccc4)c4ccccc4)cc3c2c1) 511 nm.
With `COC(=O)C(NC(=O)OC(C)(C)C)c1ccc2oc(-c3ccc(F)cc3)nc2c1` (configuration not stated), the emission maximum is 320 nm (in CC1CCCCC1), 341 nm (in CC#N) and 342 nm (in CO).
Compound `C[SiH]1c2ccccc2-c2cc3c(cc21)-c1ccccc1[SiH]3C` (configuration not stated) gave an emission maximum (in ClCCl) of 389 nm.
The same measure, in the same setting: the result for `CN(C)c1ccc(/C=C/c2cc(/C=C/c3ccc(N(C)C)cc3)ncn2)cc1` reads 530 nm.
On to `CN(C)c1ccc(/C=C/c2nc3c(ccc4ccccc43)s2)cc1`, for which the emission maximum is 468 nm (in C1CCCCC1) and 524 nm (in CC#N).
Compound `c1ccc([B-]2(c3ccccc3)Oc3ccc4ccccc4c3-c3c4ccccc4nc[n+]32)cc1` yielded an emission maximum (in Cc1ccccc1) of 543 nm.
